# Assay results as given in patent US7208517B1, “Endothelin antagonists” (Abbott Labortories, priority 1994, dated 2007).
# Molecular target: T1, ETA Receptor (Rattus norvegicus, UniProt P26684)
# T1 construct: endogenous in cells; host or cells: MMQ rat pituitary cells (membranes)
# T1 sequence (P26684 21-426): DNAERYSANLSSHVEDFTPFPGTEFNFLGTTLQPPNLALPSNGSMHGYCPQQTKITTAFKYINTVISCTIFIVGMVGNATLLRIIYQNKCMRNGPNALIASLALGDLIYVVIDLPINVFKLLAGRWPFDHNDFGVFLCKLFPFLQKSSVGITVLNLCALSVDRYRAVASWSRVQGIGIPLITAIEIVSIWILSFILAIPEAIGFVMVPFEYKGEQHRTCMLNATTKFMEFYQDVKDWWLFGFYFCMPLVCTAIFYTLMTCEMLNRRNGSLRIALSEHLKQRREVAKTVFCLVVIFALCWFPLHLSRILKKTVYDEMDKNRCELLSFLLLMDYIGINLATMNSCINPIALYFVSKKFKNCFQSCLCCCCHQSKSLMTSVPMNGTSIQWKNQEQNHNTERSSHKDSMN
# Experiment: [125I]ET-1 binding to membranes from MMQ cells (ETA receptor binding assay, Table 4)
# Conditions: test compound at 1 μM; 0.1 nM [125I]ET-1, MMQ cell membranes, 4 hours at 25° C.
# Procedure: Preparation of Membranes from MMQ Cells:
# MMQ [MacLeod/MacQueen/Login cell line (prolactin secreting rat pituitary cells)] cells from 150 mL culture flasks were collected by centrifugation (1000×g for 10 min) and then homogenized in 25 mL of 10 mM Hepes (pH 7.4) containing 0.25 M sucrose and protease inhibitors [3 mM EDTA, 0.1 mM PMSF, and 5 μg/mL Pepstatin A] by a micro ultrasonic cell disrupter (Kontes). The mixture was centrifuged at 1000×g for 10 min. The supernatant was collected and centrifuged at 60,000×g for 60 min. The precipitate was resuspended in 20 mM Tris, pH 7.4 containing the above protease inhibitors and centrifuged again. The final pellet was resuspended in 20 mM Tris, pH 7.4 containing protease inhibitors and stored at −80° C. until used. Protein content was determined by the Bio-Rad dye-binding protein assay.
# Binding assays were performed in 96-well microtiter plates pretreated with 0.1% BSA. […] After incubation, unbound ligands were separated from bound ligands by a vacuum filtration method using glass-fiber filter strips in PHD cell harvesters (Cambridge Technology, Inc., MA), followed by washing the filter strips with saline (1 mL) for three times. Nonspecific binding was determined in the presence of 1 μM ET-1.
row,% Inhibition of ETA at 1 μM [%],Structure (SMILES)
1,32.4,"CCCN(C)C(=O)CN1CC(c2ccccc2)C(C(=O)O)C1c1ccc(OC)cc1 (stereo not drawn) [Example 145, trans,trans-1-(N-Methyl-N-propylaminocarbonylmethyl)-2-(4-methoxyphenyl)-4-(phenyl)pyrrolidine-3-carboxylic acid]"
2,92.2,"CCCCN(CCCC)C(=O)CN1CC(c2ccc3c(c2)OCO3)C(C(=O)O)C1c1ccc(CC)cc1 (stereo not drawn) [Example 307, trans—trans-2-(4-Ethylphenyl)-4-(1,3-benzodioxol-5-yl)-1-[N,N-di(n-butyl)aminocarbonylmethyl]-pyrrolidine-3-carboxylic acid]"
3,91.5,"CCCCN(CCCC)C(=O)CN1CC(c2ccc3c(c2)CCO3)C(C(=O)O)C1c1ccc2c(c1)CCO2 (stereo not drawn) [Example 162B, trans,trans-1-(N,N-Di(n-butyl)aminocarbonylmethyl)-2,4-di(5-benzo-2,3-dihydrofuranyl)pyrrolidine-3-carboxylic acid]"
4,89.8,"COc1ccc(C2C(C(=O)O)C(c3ccc4c(c3)OCO4)CN2CC(=O)N2CC[C@@H]3CCCC[C@H]3C2)cc1 (relative stereo) [Example 293, trans—trans-2-(4-Methoxyphenyl)-4-(1,3-benzodioxol-5-yl)-1-[decahydroisoquinolin-2-carbonylmethyl]-pyrrolidine-3-carboxylic acid]"
5,88.6,"CCCN(CCN1CC(c2ccc3c(c2)OCO3)C(C(=O)O)C1c1ccc(OC)cc1)S(=O)(=O)Cc1ccccc1 (stereo not drawn) [Example 133, trans,trans-1-(2-(N-Propyl-N-(benzylsulfonyl)amino)ethyl)-2-(4-methoxyphenyl)-4-(1,3-benzodioxol-5-yl)pyrrolidine-3-carboxylic acid]"
6,63.4,"COc1ccc(C2C(C(=O)O)C(c3ccc4c(c3)OCO4)CN2CCc2ccccn2)cc1 (stereo not drawn) [Example 7, trans,trans-2-(4-Methoxyphenyl)-4-(1,3-benzodioxol-5-yl)-1-[2-(2-pyridyl)ethyl]-pyrrolidine-3-carboxylic acid]"
7,5.8,"CCc1ccccc1C(NC(=O)CN1CC(c2ccc3c(c2)OCO3)C(C(=O)O)C1c1ccc(OCCOC(C)C)cc1)c1ccccc1C (stereo not drawn) [Example 559, trans,trans-2-[4-(2-Isopropopoxyethoxy)phenyl]-4-(1,3-benzodioxol-5-yl)-1-(N-((1-(o-tolyl)-1-(o-ethylphenyl)-methyl)amino)carbonylmethyl)-pyrrolidine-3-carboxylic acid]"
8,80.7,"CCCCC(=O)CN1CC(c2ccc3c(c2)OCO3)C(C(=O)O)C1c1ccc(OC)cc1 (stereo not drawn) [Example 72C, trans,trans-2-(4-Methoxyphenyl)-4-(1,3-benzodioxol-5-yl)-1-(valerylmethyl)-pyrrolidine-3-carboxylic acid]"
9,98.6,"CCCCN(CCCC)C(=O)CN1CC(c2cccc3occc23)C(C(=O)O)C1c1ccc(OC)cc1 (stereo not drawn) [Example 139, trans,trans-1-(N,N-Di(n-butyl)aminocarbonylmethyl)-2-(4-methoxyphenyl)-4-(4-benzofuranyl)pyrrolidine-3-carboxylic acid]"
10,25.0,"CCCN(C)C(=O)CN1CC(c2ccc(O)cc2)C(C(=O)O)C1c1ccc(OC)cc1 (stereo not drawn) [Example 146, trans,trans-1-(N-Methyl-N-propylaminocarbonylmethyl)-2-(4-methoxyphenyl)-4-(4-hydroxyphenyl)pyrrolidine-3-carboxylic acid]"
11,42.2,"COc1ccc(C2C(C(=O)O)C(c3ccc4c(c3)OCO4)CN2Cc2ccc(F)cc2)cc1 (stereo not drawn) [Example 3, trans,trans-2-(4-Methoxyphenyl)-4-(1,3-benzodioxol-5-yl)-1-(4-fluorobenzyl)-pyrrolidine-3-carboxylic acid]"
12,89.7,"CCCCCCCS(=O)(=O)N(CCC)CCN1CC(c2ccc3c(c2)OCO3)C(C(=O)O)C1c1ccc(OC)cc1 (stereo not drawn) [Example 304, trans,trans-2-(4-Methoxyphenyl)-4-(1,3-benzodioxol-5-yl)-1-(2-(N-propyl-N-heptanesulfonylamino)ethyl)-pyrrolidine-3-carboxylic acid]"
